According to publication PMC3857281, “Molecular Mechanism of Inhibition of the Mitochondrial Carnitine/Acylcarnitine Transporter by Omeprazole Revealed by Proteoliposome Assay, Mutagenesis and Bioinformatics” (PLoS ONE, 2013):
Residue numbers refer to the chain shown, from its start. Blank lines part the entries; values can stand above or below the compound they belong to.

What was measured:
Format in all cases: biochemical
[1] = molecular target: T1, mitochondrial carnitine/acylcarnitine transporter (CACT) (Rattus norvegicus, UniProt P97521); assay: [3H]carnitine/carnitine antiport in proteoliposomes
T1 construct: gene Slc25a20; recombinant WT rat CACT expressed in E. coli, reconstituted in liposomes
T1 sequence (P97521 2-301): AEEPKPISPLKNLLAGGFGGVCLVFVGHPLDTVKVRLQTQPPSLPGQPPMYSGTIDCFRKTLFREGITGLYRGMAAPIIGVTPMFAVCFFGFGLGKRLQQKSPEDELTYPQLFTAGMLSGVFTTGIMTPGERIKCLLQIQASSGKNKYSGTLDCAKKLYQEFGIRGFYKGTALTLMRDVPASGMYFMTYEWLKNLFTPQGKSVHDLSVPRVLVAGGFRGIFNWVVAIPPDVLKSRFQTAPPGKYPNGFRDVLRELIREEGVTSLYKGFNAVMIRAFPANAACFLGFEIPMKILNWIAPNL

[2] = molecular target: T2, mitochondrial carnitine/acylcarnitine transporter (CACT), C136S mutant (Rattus norvegicus, UniProt P97521, C136S); assay: […] inhibition of antiport after […] omeprazole and removal of unreacted compound
T2 construct: gene Slc25a20; recombinant mutant rat CACT reconstituted in liposomes
T2 sequence (P97521 2-301 C136S): T1 sequence (P97521 2-301) with C135S

[3] = molecular target: T3, mitochondrial carnitine/acylcarnitine transporter (CACT), C283A mutant (Rattus norvegicus, UniProt P97521, C283A); assay: as above
T3 construct: gene Slc25a20; recombinant mutant rat CACT reconstituted in liposomes
T3 sequence (P97521 2-301 C283A): T1 sequence (P97521 2-301) with C282A

[4] = molecular target: T1, mitochondrial carnitine/acylcarnitine transporter (CACT); assay: [3H]carnitine/carnitine antiport in proteoliposomes; acid-activated omeprazole (non-activated compound inactive)

- IC50 ([1]; read-out: IC50): 80 µM
Compound: Cc1c(OCC(F)(F)F)ccnc1C[S+]([O-])c1nc2ccccc2[nH]1 (centres unmarked) [lansoprazole]

Compound: COc1ccc2[nH]c([S+]([O-])Cc3ncc(C)c(OC)c3C)nc2c1 (centres unmarked) [omeprazole]
- inhibition at 30 µM [2]: 59%
- inhibition at 30 µM [3]: 53%
- IC50 [4]: 5.4 µM

Compound: COc1ccnc(C[S+]([O-])c2nc3ccc(OC(F)F)cc3[nH]2)c1OC (centres unmarked) [pantoprazole]
- IC50 [1]: 6.4 µM
